# Reference: US5770604A, “Aconitine compound and an antipyretic/analgesic/anti-inflammatory agent” (priority 1994, dated 1998)
# How the values were obtained:
# Type in all cases: in vivo, mice (Std:ddY, male)
# [1] = test system: pain threshold (tail-pressure); assay: Analgesic activity by the tail-pressure method (s.c.); details: mouse, 10 mg/10 ml at 10 ml/kg s.c., 1 hour after administration, mean ± standard error
# Method: (1) Measurement of Analgesic Activity by the Tail-Pressure Method
# Std:ddY Strain male mice (20-25 g) were fasted for one day before the experiment, and were used. After test compounds shown in Table 1 was formed to a salt with tartaric acid, this salt was dissolved in 0.9% physiological saline solutions at the rate of 10 mg/10 ml to give the test compoun d solution . As a control, 0.9% physiological saline solution was used. A tail-pressure apparatus was used in this experiments. Before the administration of test compounds, the pain threshold was measured twice at intervals of 30 minutes and those mice indicating a pain threshold of 50 to 100 mmHg were selected and used. The pain threshold of each mouse was measured at 1 hour after test compound solution mentioned above was administered at 10 ml/kg, s.c. 0.9% Physiological saline solution as a control was administered at 10 ml/kg, s.c . The results were described as an inhibition rate (%) obtained from the following equation. Cutoff level of pressure was defined to be 230 mmHg for the prevention of the damage of mouse tail.
# Inhibition rate (%)=(A-B)×100/(C-B)
# A: Pain threshold (mmHg) after the administration of test compound solution
# B: Pain threshold (mmHg) before the administration of test compound solution
# C: Cutoff pressure (230 mmHg)
# [2] = test system: nociceptive response (licking); assay: Analgesic activity by the hot-plate method; details: mouse, 52° C. plate, solution 10 mg/10 ml, mean ± standard error
# Method: Measurement of Analgesic Activity by the Hot-Plate Method
# Std:ddY Strain male mice (20-25 g) were fasted for one day before the experiment, and were used. After compounds shown in Table 1 were formed to the tartaric acid salts, these compounds were dissolved in 0.9% physiologocal saline solution at the rate of 10 mg/10 ml, respectively and these solution were used as test compound solution. In a control, 0.9% physiological saline solution was used. Mice were placed on a cyrindric hot plate (diameter: 22 cm, height: 11 cm) made of copper which was fixed in a water bath adjusted to 52° C. so that each animal's four paws came into contact with the plate and the time taken to show the nociceptive response (licking) as an index of pain was measured. Mice showing response latency above 25 seconds were excluded from the experiment. To prevent a burn damage of mouse tissue by heating, cutoff time of 50 seconds was defined. The results were described as an inhibition rate (%) obtained from the following equation.
# Inhibition rate (%)=(A-B)×100/(50-B)
# A: Response latency (seconds) after the administration of test compound solution
# B: Response latency (seconds) before the administration of test compound solution
# [3] = test system: carrageenin-induced paw edema; assay: Antiinflammatory activity by the carrageenin-induced hind paw edema; details: mouse, 30 mg/kg p.o., mean ± standard error, n = 6
# Method: Measurement of Antiinflammatory Activity by the Carrageenin-Induced Hind Paw Edema
# Std:ddY Strain male mice (20-25 g) were fasted for one day before the experiment, and were used. After test compounds shown in Table 1 was formed to a salt with tartaric acid, this salt was dissolved in sterilized and distilled water at the rate of 30 mg/10 ml to give the test compound solution. As a control, sterilized and distilled water was used. One hour after the oral administration of test compound solutions, 25 μl of λ-carrageenin suspended in 0.9% physiological saline solution (0.5 mg/25 μl) was injected s.c. under the plantar surface of the right hind paw of a mouse and 25 μl of 0.9% physiological saline solution was injected s.c. under the plantar surface of the left hind paw of the same mouse. Three hours and five hours after carrageenin injection, the […] of the paw was measured with a dial gauge calliper. To the control group, One hour after the oral administration of sterilized and distilled water at the rate of 10 ml/kg, 25 μl of λ-carrageenin (0.5 mg/25 μl) suspended in 0.9% physiological saline solution was injected s.c. under the plantar surface of the right hind paw of a mouse and 25 μl of 0.9% physiological saline solution was injected s.c. under the plantar surface of the left hind paw of the same mouse and the later operation was done in the same manner as in the test compound dosing group mentioned above. The results were described as a swelling rate (%) obtained from the following equation.
# Swelling rate (%)=(R-L)×100/L
# R: the thickness of the right hind paw
# L: the thickness of the left hind paw
# [4] = test system: pain threshold (tail-pressure); assay: Tail-pressure method, experiment combined with morphine administration; details: mean ± standard error, n = 7
# Method: (3) Experiment Combined with Morphine Administration
# Std:ddY Strain male mice (20-25 g) were fasted for one day before the experiment, and were used. In this experiment, the tartaric acid salt of a compound of number (2) in Table 1 and morphine hydrochloride were used. The tartaric acid salt of a compound of number (2) was dissolved in 0.9% physiological saline solution at the rate of 7 mg/10 ml. Morphine hydrochloride was dissolved in 0.9% physiological saline solution at the rates of 5 mg/2 ml, 3 mg/2 ml and 1 mg/2 ml. As a control, 0.9% phisiological saline solution was used. A tail-pressure apparatus was used in this experiments. Before the administration of test compounds, the pain threshold was measured twice at intervals of 30 minutes and those mice indicating a pain threshold of 50 to 100 mmHg were selected and used. Mice was divided in the following four groups, (i) control group, (ii) the administration group of the tartaric acid salt of a compound of number (2), (iii) the administration group of morphine hydrochloride and (iv) the combined administration group with the tartaric acid salt of a compound of number (2) and morphine hydrochloride. In the administration group of the tartaric acid salt of a compound of number (2), 0.9% physiological saline solution of this tartaric acid salt mentioned above was injected s.c. at the rate of 10 ml/kg and, 30 minutes later, 0.9% physiological saline solution was injected i.v. at the rate of 2 ml/kg. In the administration group of morphine hydrochloride, 0.9% physiological saline solution was injected s.c. at the rate of 10 ml/kg and, 30 minutes later, the above physiological saline solution of morphine hydrochloride was injected i.v. at the rate of 2 ml/kg. In the combined administration group with the tartaric acid salt of a compound of number (2) and morphine hydrochloride,the above physiological saline solution of the tartaric acid salt of a compound of number (2) was injected s.c. at the rate of 10 ml/kg and, 30 minutes later, the above physiological saline solution of morphine hydrochloride was injected i.v. at the rate of 2 ml/kg. In control group, 0.9% physiological saline solution was injected s.c. at the rate of 10 ml/kg and, 30 minutes later, 0.9% physiological saline solution was injected i.v. at the rate of 2 ml/kg. Each pain threshold was measured 10, 20 and 30 minutes after an intravenous injection. The results were described in Table 9 as an inhibition rate (%) indicating in the preceding paragraph (1).
# [5] = test system: pain threshold (tail-pressure); assay: Tail-pressure method, comparison with morphine (i.v.); details: mean ± standard error
# Method: (2) Comparison with Morphine
# Std:ddY Strain male mice (20-25 g) were fasted for one day before the experiment, and were used. In this experiment, the tartaric acid salt of a compound of number (2) in Table 1 and morphine hydrochloride as a possitive control were used. This tartaric acid salt was dissolved in 0.9% physiological saline solution at the rates of 5 mg/2 ml, 3 mg/2 ml and 1 mg/2 ml. Morphine hydrochloride was dissolved in 0.9% physiological saline solution at the rates of 5 mg/2 ml, 3 mg/2 ml and 1 mg/2 ml. As a negative control, 0.9% phisiological saline solution was used. A tail-pressure apparatus was used in this experiments. Before the administration of test compounds, the pain threshold was measured twice at intervals of 30 minutes and those mice indicating a pain threshold of 50 to 100 mmHg were selected and used. The pain threshold of each mouse was measured at 10, 20 and 30 minutes after test compound solution mentioned above was administered at 2 ml/kg, i.v. 0.9% Physiological saline solution as a control was administered i.v. The results were described as an inhibition rate (%) indicating in the preceding paragraph (1).
# [6] = test system: pain threshold (tail-pressure); assay: Tail-pressure method, experiment combined with morphine antagonist (levallorphan); details: 10 mg/kg i.v., mean ± standard error
# Method: (4) Experiment Combined with Morphine Antagonist
# Std:ddY Strain male mice (20-25 g) were fasted for one day before the experiment, and were used. In this experiment, the tartaric acid salt of a compound of number (2) in Table 1, morphine hydrochloride and levallorphan hydrochloride of an opioid antagonist were used. The tartaric acid salt of a compound of number (2) was dissolved in 0.9% physiological saline solution at the rate of 10 mg/2 ml. Morphine hydrochloride was dissolved in 0.9% physiological saline solution at the rate of 10 mg/2 ml. Levallorphan hydrochloride was dissolved in 0.9% physiological saline solution at the rate of 1 mg/10 ml. As a control, 0.9% physiological saline solution was used. A tail-pressure apparatus was used in this experiments. Before the administration of levallorphan hydrochloride, the pain threshold was measured twice at intervals of 30 minutes and those mice indicating a pain threshold of 50 to 100 mmHg were selected and used. Levallorphan hydrochloride solution mentioned above was administered s.c. at the rate of 10 ml/kg and, 30 minutes later, the above tartaric acid salt solution compound of number (2) or morphine hydrochloride solution was injected i.v. at the rate of 2 ml/kg, respectively. Each pain threshold was measured 10, 20 and 30 minutes after an intravenous injection. In control group, 0.9% physiological saline solution was injected i.v. at the rate of 2 ml/kg at 30 minutes after s.c. administration at 10 ml/kg of 0.9% physiological saline solution. In the single administration group of levallorphan hydrochloride, levallorphan hydrochloride solution mentioned above was administered s.c. at the rate of 10 ml/kg and, 30 minutes later, 0.9% physiological saline solution was injected i.v. at the rate of 2 ml/kg. The results were described in Table 10 as an inhibition rate (%) indicating in the preceding paragraph (1).
molecule,measurement,setting,value
15-O-acetyl-8-deoxy-14-O-p-chlorobenzoylaconine [(8)],Inhibition rate (tail-pressure method),[1],26 ± 7%
same,Inhibition rate (hot-plate method),[2],48 ± 8%
same,Swelling rate,[3]; 3 hour,41 ± 5%
same,Swelling rate,[3]; 5 hour,55 ± 8%
15-O-acetyl-8-deoxy-14-O-p-chlorobenzoylmesaconine [(7)],Inhibition rate (tail-pressure method),[1],35 ± 10%
same,Inhibition rate (hot-plate method),[2],49 ± 11%
same,Swelling rate,[3]; 3 hour,43 ± 8%
same,Swelling rate,[3]; 5 hour,48 ± 8%
15-O-acetyl-8-deoxy-16-epi-14-O-p-chlorobenzoylaconine [(10)],Inhibition rate (tail-pressure method),[1],23 ± 7%
same,Inhibition rate (hot-plate method),[2],40 ± 10%
same,Swelling rate,[3]; 3 hour,49 ± 6%
same,Swelling rate,[3]; 5 hour,49 ± 11%
15-O-acetyl-8-deoxy-16-epi-14-O-p-chlorobenzoylmesaconine [(9)],Inhibition rate (tail-pressure method),[1],31 ± 12%
same,Inhibition rate (hot-plate method),[2],46 ± 7%
same,Swelling rate,[3]; 3 hour,44 ± 7%
same,Swelling rate,[3]; 5 hour,56 ± 7%
"CCCN1CC2(COC)C(O)CC(OC)C34C5CC6(O)C(OC)C(OC(C)=O)C(O)(C5C6OC(=O)c5ccc(Cl)cc5)C(C(OC)C23)C14 (centres unmarked) [(3), de-N-ethyl-N-propyl-15-O-acetyl-14-O-p-chlorobenzoylaconine]",Inhibition rate (tail-pressure method),[1],36 ± 10%
same,Inhibition rate (hot-plate method),[2],39 ± 11%
same,Swelling rate,[3]; 3 hour,42 ± 10%
same,Swelling rate,[3]; 5 hour,54 ± 8%
"CN1CC[C@]23c4c5ccc(O)c4O[C@H]2[C@@H](O)C=C[C@H]3[C@H]1C5 [morphine, reference compound]",Inhibition rate,"[4]; morphine 1 mg/kg i.v. alone, 10 min",2 ± 2%
same,Inhibition rate,"[4]; morphine 1 mg/kg i.v. alone, 20 min",3 ± 4%
same,Inhibition rate,"[4]; morphine 1 mg/kg i.v. alone, 30 min",1 ± 2%
same,Inhibition rate,"[4]; morphine 3 mg/kg i.v. alone, 10 min",11 ± 8%
same,Inhibition rate,"[4]; morphine 3 mg/kg i.v. alone, 20 min",15 ± 9%
same,Inhibition rate,"[4]; morphine 3 mg/kg i.v. alone, 30 min",10 ± 6%
same,Inhibition rate,"[4]; morphine 5 mg/kg i.v. alone, 10 min",36 ± 10%
same,Inhibition rate,"[4]; morphine 5 mg/kg i.v. alone, 20 min",32 ± 11%
same,Inhibition rate,"[4]; morphine 5 mg/kg i.v. alone, 30 min",26 ± 8%
same,Inhibition rate,"[5]; 1 mg/kg i.v., 10 minutes",1 ± 2%
same,Inhibition rate,"[5]; 1 mg/kg i.v., 20 minutes",2 ± 2%
same,Inhibition rate,"[5]; 1 mg/kg i.v., 30 minutes",2 ± 1%
same,Inhibition rate,"[5]; 3 mg/kg i.v., 10 minutes",13 ± 7%
same,Inhibition rate,"[5]; 3 mg/kg i.v., 20 minutes",18 ± 10%
same,Inhibition rate,"[5]; 3 mg/kg i.v., 30 minutes",12 ± 8%
same,Inhibition rate,"[5]; 5 mg/kg i.v., 10 minutes",38 ± 12%
same,Inhibition rate,"[5]; 5 mg/kg i.v., 20 minutes",30 ± 10%
same,Inhibition rate,"[5]; 5 mg/kg i.v., 30 minutes",29 ± 12%
same,Inhibition rate,"[6]; with levallorphan 1 mg/kg s.c. 30 minutes before, 10 min",10 ± 1%
same,Inhibition rate,"[6]; with levallorphan 1 mg/kg s.c. 30 minutes before, 20 min",10 ± 7%
same,Inhibition rate,"[6]; with levallorphan 1 mg/kg s.c. 30 minutes before, 30 min",20 ± 6%
same,Inhibition rate,"[6]; without levallorphan, 10 min",70 ± 13%
same,Inhibition rate,"[6]; without levallorphan, 20 min",73 ± 9%
same,Inhibition rate,"[6]; without levallorphan, 30 min",65 ± 12%
